Measurements reported in US6544750B1, “Peptide analogs as selective inhibitors of thrombin activation of protease activated receptor 1” (Thromgen, Inc., priority 1999, dated 2003).

Assays:
[1] = test system: Normal human lung fibroblasts (NHLF); experiment: α-thrombin-induced calcium mobilization in fibroblasts (fura-2); assay type: cell-based; conditions: thrombin-induced calcium mobilization in fibroblasts, 0.2 mM peptide
Description: The second assay developed to assess peptides from the combinatorial libraries uses inhibition of α-thrombin-induced calcium mobilization in fibroblasts. Normal human lung fibroblasts (NHLF) were purchased from Clonetics, San Diego, Calif., an affiliate of Bio-Wittaker, Walkersville, Md. The cytoplasmic free Ca^2+ concentration ([Ca^2+]i) was measured using the fluorescent Ca^2+ indicator fura-2 (Molecular Probes, Inc., Eugene, Oreg.). Suspension of fibroblasts in Hepes-Tyrode's buffer were loaded with fura-2 by incubation at 37° C. with 2 μM fura-2/acetoxymethyl ester for 45 minutes according to the method of Rasmussen et al., J. Biol. Chem. 268, 14322 (1993). The labeled fibroblasts were separated from excess probe by washing by centrifugation at 1000 rpm (180×g). Aliquots of the labeled fibroblasts were transferred into a quartz cuvette with a magnetic stirrer, which was then placed in a thennostatically controlled chamber at 37° C. in a fluorescence spectrophotometer (Perkin-Elmer LS50B spectrofluorometer, Chicago, Ill.). Reagents, test peptide (SEQ ID NO: 5) (from 0.2 mM to effective lower concentration), and α-thrombin (2-4 nM), were sequentially added directly to the cuvette. The excitation wavelengths varied between 340 and 380 nm. Fluorescence was measured by recording emitted light at 510 nm as reported by Fisher et al., Mol Pharm. 35, 195 (1989). The minimum emission was determined on a solubilized fibroblast sample in the presence of 10 mM EDTA; maximum emission was determined on the same sample with 10 mM Ca^2+ added. The intrafibroblast free Ca^2+ concentration was calculated by the method of Grykiewicz et al., J. Biol. Chem. 260, 3440 (1985). The ratio of the fluorescence readings was calculated as R=340/380 nm and processed according to the equation [Ca^2+]i=KD((R−Rmim)/Rmax−R)) (Sf2/Sb2) to determine the intrafibroblast free Ca^2+ concentration. The KD for fura-2 was assumed to be 224 nM. Rmax and Rmin are the maximum and minimum fluorescence ratios measured at the end of the experiment, respectively; Sf2 and Sb2 are the fluorescence values at 380 nm in the absence and presence of saturating [Ca 2+], respectively. The reaction was monitored for 3-5 minutes. […] In FIG. 4, peptide RGDWC (SEQ ID NO: 20) at 0.2 mM inhibited 31% of 4 nM α-thrombin-induced Ca^2+ mobilization in fibroblasts.

[2] = target: biotin-NAT12 (NATLDPRSFLLR, peptide from PAR1) (Homo sapiens, UniProt P25116); experiment: Biotin-NAT12 binding assay to peptides coupled to microtiter plates; conditions: relative to RPPGF given arbitrary binding level of 1
Description: A third assay was developed to ascertain the ability of biotin-NAT12 (NATLDPRSFLLR, SEQ ID NO: 41) to directly bind to peptides linked to microtiter plates. In this assay, peptide analogs were linked to microtiter plate cuvette wells by incubation of the peptide in 0.1 M Na2CO3, pH 9.6 buffer overnight at 4° C. After coupling the peptide to the cuvette well, the wells were dumped and each well was blocked with 1% bovine serun albumin in 0.01 M Na3PO4, 0.15 M NaCl, at pH 7.4. After incubation for 1 hour, the wells were dumped and washed three times with PBS-Tween. The wells were then incubated with biotin-NAT12. The amount of biotin-NAT12 bound was determined by adding streptavidin-peroxidase followed by adding turbo TMB (Pierce).
In decreasing order of binding level, these peptides include: RGKSC, RGKMC, RGKHC, RGKKC, RGKFC, RGKLC, RGKWC, and RGKVC (SEQ ID NOS 18, 7, 13, 14, 11, 1, 5 and 19, respectively). […] The best to least RGDO4C (SEQ ID NO: 44) peptides to bind biotin-NAT12 listed in Table VI are: RGDSC, RGDGC, RGDQC, RGDEC, RGDIC, RGDPC, RGDDC, and RGDYC (SEQ ID NOS 34, 28, 23, 22, 36, 38, 27 and 35, respectively). A solid phase peptide-peptide binding assay was used to determine biotin-NAT12 binding to library peptides. Test peptides in 0.1 M Na2CO3, pH 9.6 buffer, at 10 μg/well in 50 μl volume, were coupled to microtiter plate wells by overnight incubation at 4° C. After incubation, the contents of the wells were discarded and the wells were washed with a pH 7.4 buffer containing 0.01 M Na3PO4, 0.15 M NaCl, and 0.01% Tween 20. After blocking each well with 1% radioimmunoassay grade bovine serum albumin, the linked peptides were incubated with 100 μl of 100 μM biotin-NAT12 for 1 hour at 37° C. After incubation, the contents of the wells were dumped and the wells were washed three times (100 μl/well each time) with the buffer identified above. Each well then was incubated with 100 μl of 2 μg/ml solution of Immuno-Pure streptoavidin horeseradish peroxidase conjugate (Pierce Chemical Co., […], Ill.) for 1 hour at room temperature. The contents of the wells were discarded and the wells were washed three times as described above. The wells were then incubated with 100 μl of peroxidase-specific fast reacting substrate, turbo-3,3′,5,5′-tetramethylbenzidine (turbo-TMB, Pierce) for 5 minutes at room temperature and the developing color reaction was stopped by the addition of 100 μof 1 M phosphoric acid. The absorbance was measured at 450 nm using a Microplate Auto Reader EL311 (Bio-Tek, Winooski, Vt.).

[3] = test system: platelets (platelet-rich plasma); experiment: γ-thrombin-induced platelet aggregation in platelet-rich plasma; assay type: cell-based, human; conditions: γ-thrombin, compared to RPPGF at 0.2 mM
Description: Fresh whole blood was collected and mixed with 0.013 M sodium citrate and platelet-rich plasma was prepared according to the method of Meloni et al., J. Biol. Chem. 266, 6786 (1991). Platelet-rich plasma with a normalized platelet count between 2-2.5×10^8 platelets/ml was added to a cuvette of an aggregometer (Chronlog Corp., Havertown, Pa.), standardized using the protocol of Meloni et al., supra. Peptides to be examined were added to the cuvette and the mixture stabilized for a few moments. Once the baseline was stabilized, γ-thrombin (10-70 NM) (Haematologic Technologies, Essex Junction, Vt.) was added to determine the minimal concentration of the agonist necessary to achieve full platelet aggregation. All investigations with peptides were performed using threshold concentrations of γ-thrombin. Aggregation was allowed to proceed for 5 minutes before stopping. When ADP-induced platelet aggregation studies were performed, 1-5 μM ADP (Sigrna) was added to the cuvette containing platelet-rich plasma.

[4] = RGKO4C sublibrary, platelet-rich plasma

Row | Level of Binding to Biotin-NAT12 ([2]; RGKO4C sublibrary) | Level of Binding to Biotin-NAT12 ([2]; RGDO4C sublibrary) | Substance | Ca2+ % Inhibition At 0.2 mM Peptide ([1]; RGKO4C sublibrary) [%] | Fold Increase in Aggregation Inhibition over RPPGF ([3]; RGDO4C sublibrary) [fold] | Ca2+ % Inhibition At 0.2 mM Peptide ([1]; RGDO4C sublibrary) [%] | Fold Increase in Aggregation Inhibition over RPPGF [3, 4] [fold]
1 | – | 1.05 | RGDYC: peptide of the H-R-G-D-O4-C-NH2 sublibrary (H-RGDYC-NH2) | – | 5 | 16.4 | –
2 | – | 1.22 | RGDIC: peptide of the H-R-G-D-O4-C-NH2 sublibrary (H-RGDIC-NH2) | – | 3.8 | 9.3 | –
3 | – | 0.723 | RGDVC: peptide of the H-R-G-D-O4-C-NH2 sublibrary (H-RGDVC-NH2) | – | 15 | 2.56 | –
4 | – | 1.28 | RGDEC: peptide of the H-R-G-D-O4-C-NH2 sublibrary (H-RGDEC-NH2) | – | 20 | 1.96 | –
5 | – | 1.32 | RGDQC: peptide of the H-R-G-D-O4-C-NH2 sublibrary (H-RGDQC-NH2) | – | 15.8 | 8.45 | –
6 | 2.2 | – | RGKSC: peptide of the H-R-G-K-O4-C-NH2 sublibrary (H-RGKSC-NH2) | 0.01 | – | – | –
7 | – | 0.746 | RGDTC: peptide of the H-R-G-D-O4-C-NH2 sublibrary (H-RGDTC-NH2) | – | 7.5 | 0 | –
8 | 0.38 | – | RGKRC: peptide of the H-R-G-K-O4-C-NH2 sublibrary (H-RGKRC-NH2) | 35.7 | – | – | 2.5
9 | 1.8 | – | RGKKC: peptide of the H-R-G-K-O4-C-NH2 sublibrary (H-RGKKC-NH2) | 38.9 | – | – | –
10 | 1.0 | – | RGKGC: peptide of the H-R-G-K-O4-C-NH2 sublibrary (H-RGKGC-NH2) | 12.4 | – | – | –
11 | 1.2 | – | RGKPC: peptide of the H-R-G-K-O4-C-NH2 sublibrary (H-RGKPC-NH2) | 31.13 | – | – | –

The next lines start with the substance.

Row | Substance | Level of Binding to Biotin-NAT12 ([2]; RGKO4C sublibrary) | Level of Binding to Biotin-NAT12 ([2]; RGDO4C sublibrary) | Ca2+ % Inhibition At 0.2 mM Peptide ([1]; RGKO4C sublibrary) [%] | Fold Increase in Aggregation Inhibition over RPPGF ([3]; RGDO4C sublibrary) [fold] | Ca2+ % Inhibition At 0.2 mM Peptide ([1]; RGDO4C sublibrary) [%] | Fold Increase in Aggregation Inhibition over RPPGF [3, 4] [fold]
12 | RGKFC: peptide of the H-R-G-K-O4-C-NH2 sublibrary (H-RGKFC-NH2) | 1.5 | – | 2.74 | – | – | –
13 | RGKAC: peptide of the H-R-G-K-O4-C-NH2 sublibrary (H-RGKAC-NH2) | 0.689 | – | 5.2 | – | – | –
14 | RGKTC: peptide of the H-R-G-K-O4-C-NH2 sublibrary (H-RGKTC-NH2) | 0.597 | – | 26.8 | – | – | 4.4
15 | RGKNC: peptide of the H-R-G-K-O4-C-NH2 sublibrary (H-RGKNC-NH2) | 1.2 | – | 0 | – | – | –
16 | RGKQC: peptide of the H-R-G-K-O4-C-NH2 sublibrary (H-RGKQC-NH2) | 0.374 | – | 28 | – | – | –
17 | RGKHC: peptide of the H-R-G-K-O4-C-NH2 sublibrary (H-RGKHC-NH2) | 2.1 | – | 31.2 | – | – | –
18 | RGKVC: peptide of the H-R-G-K-O4-C-NH2 sublibrary (H-RGKVC-NH2) | 1.2 | – | 17.3 | – | – | –
19 | RGDPC: peptide of the H-R-G-D-O4-C-NH2 sublibrary (H-RGDPC-NH2) | – | 1.12 | – | – | 4.13 | –
20 | RGDKC: peptide of the H-R-G-D-O4-C-NH2 sublibrary (H-RGDKC-NH2) | – | 0.67 | – | 7.5 | 28.1 | –
21 | RGDDC: peptide of the H-R-G-D-O4-C-NH2 sublibrary (H-RGDDC-NH2) | – | 1.11 | – | 7.5 | 8.9 | –
22 | RGKLC: peptide of the H-R-G-K-O4-C-NH2 sublibrary (H-RGKLC-NH2) | 1.5 | – | 8.33 | – | – | 7.7
23 | RGDHC: peptide of the H-R-G-D-O4-C-NH2 sublibrary (H-RGDHC-NH2) | – | 0.759 | – | 14.8 | 9.9 | –
24 | RGDLC: peptide of the H-R-G-D-O4-C-NH2 sublibrary (H-RGDLC-NH2) | – | 0.98 | – | 7.5 | 0 | –
25 | RGKDC: peptide of the H-R-G-K-O4-C-NH2 sublibrary (H-RGKDC-NH2) | 0.82 | – | 26.7 | – | – | –
26 | RGDFC: peptide of the H-R-G-D-O4-C-NH2 sublibrary (H-RGDFC-NH2) | – | 0.671 | – | 25 | 30.3 | –
27 | RGDAC: peptide of the H-R-G-D-O4-C-NH2 sublibrary (H-RGDAC-NH2) | – | 0.8 | – | – | 11 | –
28 | RGKEC: peptide of the H-R-G-K-O4-C-NH2 sublibrary (H-RGKEC-NH2) | 0.926 | – | 13.8 | – | – | –
